The results in this text go back to ChEMBL document CHEMBL1201862, “PubChem BioAssay data set” (2004).

Some test systems named below: SF-539; MDA-MB-435; SF-295; HCT-116; SNB-19; U-251; UACC-257; K562; SF-268; HCC 2998; MCF7; MDA-MB-231; T47D; CCRF-CEM; ACHN; UO-31; HT-29; PC-3; A549; UACC-62.
Common to all, as to assay: inhibition of tumour cell growth, NCI panel, 48 h

Molecules are shown by their SMILES.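 Cells were grown in 96-well plates and exposed to each compound for 48 hours at five concentrations; endpoints were interpolated linearly between bracketing concentrations, or set to the highest concentration if not reached. The concentration for 50% growth inhibition is given as GI50.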 Activity calls are given as the source filed them. Cut-off read from the data, not from the text of the source: active = GI50 up to about 1.1 µM and inactive = higher.

For the compound `CN(C)c1nc(N)c(C#N)c(C#N)c1C#N`, the GI50 in the test with SF-539, with MDA-MB-435, in the test on SF-295, in the test on HCT-116, in the test with SNB-19 and in the test with U-251 was > 10 µM (inactive) in each case. Moreover, the GI50 in the test on UACC-257 is > 10 µM (inactive); with K562 it was > 4.61 µM (inactive); with SF-268, > 10 µM (inactive); in the test on HCC 2998, > 10 µM (inactive); in the test with MCF7, > 10 µM (inactive); with MDA-MB-231, > 10 µM (inactive). Also, the GI50 in the test with T47D was > 8.32 µM (inactive); in the test with CCRF-CEM, 3.08 µM (inactive); in the test on ACHN, > 10 µM (inactive); in the test on UO-31, > 10 µM (inactive); in the test with HT-29, > 10 µM (inactive); in the test on PC-3, > 10 µM (inactive). Moreover, the GI50 with A549 and with UACC-62 was > 10 µM (inactive) in each case.

Turning to `O=C1Nc2ccccc2/C1=N/NC(=S)Nc1ccc([N+](=O)[O-])cc1`, the GI50 with SF-539 was 13.8 µM (inactive); in the test on MDA-MB-435 it was 6.19 µM (inactive); with SF-295, 6.64 µM (inactive); in the test on HCT-116, 5.71 µM (inactive); with SNB-19, 10.7 µM (inactive); in the test with U-251, 5.85 µM (inactive). Moreover, the GI50 is 21.1 µM (inactive) with UACC-257; 2.88 µM (inactive) with K562; 13 µM (inactive) in the test with SF-268; 11.3 µM (inactive) in the test with HCC 2998; 7.93 µM (inactive) with MCF7; 0.208 µM (active) with MDA-MB-231. Further, the GI50 with T47D was 10.4 µM (inactive); in the test with CCRF-CEM, 1.53 µM (inactive); in the test on ACHN, 6.84 µM (inactive); with UO-31, 4.81 µM (inactive); in the test on HT-29 it was 18.4 µM (inactive); in the test on PC-3 it was 3.17 µM (inactive). In addition, the GI50 in the test with A549 was 6.9 µM (inactive); in the test with UACC-62, 8.47 µM (inactive).

Take `O=C(CCc1ccc(O)c(O)c1)NCCc1cc(OCc2ccccc2)cc(OCc2ccccc2)c1`: the GI50 with SF-539 is 11.7 µM (inactive); in the test with MDA-MB-435, 12.2 µM (inactive); in the test on SF-295 it was 18.1 µM (inactive); in the test with HCT-116, 11.8 µM (inactive); in the test on SNB-19, 3.71 µM (inactive); in the test with U-251 it was 5.77 µM (inactive). The GI50 with UACC-257 was 28.1 µM (inactive); in the test on K562, 5.92 µM (inactive); with SF-268, 8.45 µM (inactive); with HCC 2998 it was 9.86 µM (inactive); in the test on MCF7 it was 12 µM (inactive); in the test on MDA-MB-231, 16.6 µM (inactive). Moreover, the GI50 with T47D was 16.4 µM (inactive); in the test with CCRF-CEM it was 1.77 µM (inactive); in the test with ACHN, 5.47 µM (inactive); in the test on UO-31, 2.13 µM (inactive); in the test with HT-29, 10.1 µM (inactive); in the test on PC-3, 8.09 µM (inactive). The GI50 with A549 was 16.7 µM (inactive); in the test on UACC-62, 14.9 µM (inactive).

With `CC(C(O)c1ccccc1)[N+](=O)[O-]` (stereo not given), the GI50 with SF-539 was 20.3 µM (inactive); in the test with MDA-MB-435, 18.5 µM (inactive); in the test on SF-295 it was 28.5 µM (inactive); with HCT-116, 37.6 µM (inactive); in the test on SNB-19, 24.5 µM (inactive); with U-251, 16.6 µM (inactive). The GI50 is 16.8 µM (inactive) in the test with UACC-257; 6.44 µM (inactive) in the test on K562; 31.5 µM (inactive) in the test on SF-268; 10.9 µM (inactive) in the test with HCC 2998; 3.64 µM (inactive) in the test on MCF7; 26.5 µM (inactive) in the test with MDA-MB-231. The GI50 in the test on T47D is 15.5 µM (inactive); in the test with CCRF-CEM, 10 µM (inactive); in the test on ACHN, 16.3 µM (inactive); in the test with UO-31, 7.69 µM (inactive); in the test on HT-29 it was 27.2 µM (inactive); in the test on PC-3, 22.6 µM (inactive). Besides, the values for the GI50 in the test on A549 and in the test on UACC-62 were 17.7 µM (inactive) and 20.2 µM (inactive), respectively.

For the compound `COc1ccc2c(c1)nc1n2C(N)=Nc2ccccc2S1`, the GI50 in the test on SF-539 was 33.4 µM (inactive); with MDA-MB-435, 32.4 µM (inactive); in the test on SF-295, 44.2 µM (inactive); in the test with HCT-116, 5.3 µM (inactive); with SNB-19 it was 39.3 µM (inactive); in the test on U-251, 18.8 µM (inactive). Besides, the GI50 was 32.5 µM (inactive) in the test on UACC-257; 4.91 µM (inactive) in the test on K562; 16.7 µM (inactive) in the test on SF-268; 31.8 µM (inactive) in the test with HCC 2998; 11.3 µM (inactive) in the test on MCF7; 52.5 µM (inactive) in the test with MDA-MB-231. Moreover, the GI50 in the test with T47D is 20.8 µM (inactive); in the test on CCRF-CEM, 2.55 µM (inactive); in the test on ACHN, 29.6 µM (inactive); in the test on UO-31 it was 26.4 µM (inactive); with HT-29 it was 17.7 µM (inactive); in the test on PC-3 it was 16.5 µM (inactive). Also, the GI50 in the test on A549 was 29.7 µM (inactive); in the test with UACC-62 it was 21 µM (inactive).

In the case of `O=c1oc2c(Cl)cc(Cl)cc2cc1-c1cn2c(n1)sc1ccccc12`, the GI50 in the test with SF-539 was > 100 µM (inactive); in the test with MDA-MB-435, 38.4 µM (inactive); in the test with SF-295 it was 59.2 µM (inactive); in the test on HCT-116 it was 27.9 µM (inactive); in the test on SNB-19, > 100 µM (inactive); in the test on U-251, > 100 µM (inactive). For the same compound, the GI50 was > 100 µM (inactive) in the test on UACC-257; 20.2 µM (inactive) in the test on K562; 65.8 µM (inactive) in the test on SF-268; 24.5 µM (inactive) in the test on HCC 2998; 44.1 µM (inactive) with MCF7; 28.4 µM (inactive) in the test with MDA-MB-231. Further, the GI50 in the test with T47D is 49.8 µM (inactive); with CCRF-CEM, 17.3 µM (inactive); with ACHN, 65.3 µM (inactive); in the test with UO-31, 36.1 µM (inactive); with HT-29 it was 71.1 µM (inactive); in the test on PC-3, 47.1 µM (inactive). The GI50 was > 100 µM (inactive) with A549 and 35.9 µM (inactive) in the test with UACC-62.

On to `CC(C)/C(Cl)=N/OC(NC(=O)Nc1ccc(Cl)c(Cl)c1)(C(F)(F)F)C(F)(F)F`, for which the GI50 was 17.4 µM (inactive) with SF-539; 16.4 µM (inactive) in the test on MDA-MB-435; 19.8 µM (inactive) in the test on SF-295; 7.36 µM (inactive) in the test on HCT-116; 20.2 µM (inactive) in the test with SNB-19; 17.3 µM (inactive) with U-251. The GI50 with UACC-257 was 13.2 µM (inactive); with K562 it was 3.05 µM (inactive); in the test with SF-268, 18.2 µM (inactive); in the test with HCC 2998, 20.1 µM (inactive); with MCF7, 19.4 µM (inactive); with MDA-MB-231, 15.5 µM (inactive). The GI50 is 7.64 µM (inactive) in the test with T47D; 2.16 µM (inactive) with CCRF-CEM; 12.2 µM (inactive) in the test on ACHN; 17.3 µM (inactive) in the test with UO-31; 15.4 µM (inactive) in the test with HT-29; 13.6 µM (inactive) in the test with PC-3. Besides, the GI50 with A549 was 23.2 µM (inactive); in the test on UACC-62, 16 µM (inactive).

`C[C@H]1C2Cc3cc(O)ccc3[C@@]1(C)CCN2CCc1ccc(N)cc1`: the GI50 was 16.7 µM (inactive) in the test on SF-539; 17.1 µM (inactive) in the test on MDA-MB-435; 18.6 µM (inactive) in the test with SF-295; 15.9 µM (inactive) in the test on HCT-116; 81.7 µM (inactive) with SNB-19; 17.6 µM (inactive) with U-251. For the same compound, the GI50 in the test with UACC-257 was 18.6 µM (inactive); in the test on K562 it was 22.3 µM (inactive); in the test on SF-268, 19.6 µM (inactive); in the test with HCC 2998 it was 13.6 µM (inactive); in the test on MCF7, 15.2 µM (inactive); in the test on MDA-MB-231, 34.9 µM (inactive). Also, the GI50 with T47D was 80.5 µM (inactive); with CCRF-CEM it was 18.5 µM (inactive); with ACHN, 58.1 µM (inactive); with UO-31 it was 37.2 µM (inactive); in the test on HT-29, 15.5 µM (inactive); in the test on PC-3 it was 18.8 µM (inactive). Besides, the GI50 with A549 was 28.6 µM (inactive); with UACC-62, > 100 µM (inactive).

In the case of `C/C(=N\NC(N)=S)c1nc2cccnc2[nH]1`, the GI50 in the test on SF-539 is 58.9 µM (inactive); with MDA-MB-435, 52.4 µM (inactive); in the test with SF-295, 84.9 µM (inactive); in the test with HCT-116, 54 µM (inactive); with SNB-19, > 76.7 µM (inactive); with U-251, 40.8 µM (inactive). The GI50 in the test on UACC-257 was > 88.5 µM (inactive); in the test with K562, 71 µM (inactive); in the test on SF-268 it was 57.7 µM (inactive); in the test with HCC 2998 it was > 66.1 µM (inactive); with MCF7, 26.8 µM (inactive); in the test with MDA-MB-231 it was > 70.1 µM (inactive). The GI50 in the test on T47D is 45.1 µM (inactive); in the test with CCRF-CEM, 31.1 µM (inactive); with ACHN, 43 µM (inactive); in the test on UO-31, 24.9 µM (inactive); in the test with HT-29 it was 41.3 µM (inactive); in the test on PC-3, 81.3 µM (inactive). Moreover, the GI50 in the test on A549 is 57.5 µM (inactive); with UACC-62, 47.2 µM (inactive).

With `CC1(C)CCC(C)(C)c2cc(C(=O)Nc3ccc(C(=O)O)cc3)ccc21`, the GI50 was 13.4 µM (inactive) in the test with SF-539; 16.4 µM (inactive) in the test with MDA-MB-435; 22 µM (inactive) in the test on SF-295; 19.3 µM (inactive) with HCT-116; 26.1 µM (inactive) in the test on SNB-19; 27 µM (inactive) with U-251. In addition, the GI50 with UACC-257 is 28.2 µM (inactive); in the test on K562, 22.8 µM (inactive); in the test on SF-268 it was 27.3 µM (inactive); in the test with HCC 2998, 19.2 µM (inactive); in the test with MCF7, 33.1 µM (inactive); with MDA-MB-231, 22.4 µM (inactive). Moreover, the GI50 is 15.5 µM (inactive) in the test with T47D; 18.2 µM (inactive) with CCRF-CEM; 21.5 µM (inactive) in the test on ACHN; 14.9 µM (inactive) in the test with UO-31; 20.7 µM (inactive) in the test on HT-29; 19.9 µM (inactive) in the test on PC-3. Further, the GI50 in the test on A549 is 20 µM (inactive); in the test on UACC-62, 17.3 µM (inactive).
